Experimental data reported in ChEMBL document CHEMBL1156502, “Stabilized immune modulatory RNA compounds as agonists of Toll-like receptors 7 and 8” (Proc Natl Acad Sci U S A, 2007).
Active and inactive are the calls of the source. The rule behind the calls is not given here.

Assays:
[1] = test system: spleen; experiment: Induction of chemokine secretion in C57BL/6 mouse spleen cells 100 ug/ml after 24 hrs by Luminex Multiplex assay; assay type: functional, cell-based
[2] = test system: Mus musculus; experiment: Induction of chemokine secretion in C57BL/6 mouse plasma at 100 mg/kg, sc by Luminex Multiplex assay; assay type: functional, organism-based; set-up: dose 100 mg/kg
[3] = test system: Cynomolgus monkey; experiment: Induction of immune response in cynomolgus monkey assessed as increase in number of peripheral blood neutrophils at 5 mg/kg, sc within 24 hrs; assay type: functional, organism-based; set-up: dose 5 mg/kg; conditions: Macaca fascicularis
[4] = test system: Mus musculus; experiment: Induction of IFN-gamma-induced monoamine secretion in C57BL/6 mouse plasma at 100 mg/kg, sc by Luminex Multiplex assay; assay type: functional, organism-based; set-up: dose 100 mg/kg
[5] = test system: Dendritic cell; experiment: Induction of IFNalpha secretion in human plasmacytoid dendritic cells at 200 ug/ml after 24 hrs by Luminex Multiplex assay; assay type: functional
[6] = test system: spleen; experiment: Induction of cytokine secretion in C57BL/6 mouse spleen cells at 100 ug/ml after 24 hrs by Luminex Multiplex assay; assay type: functional, cell-based
[7] = Stability in 1% human serum assessed as full length product after 10 mins; assay type: ADME, cell-free; conditions: read-out: Stability
[8] = biological target: T1, Toll-like receptor 8 (Homo sapiens) (UniProt Q9NR97); experiment: Activation of human TLR8 expressed in HEK293 cells assessed as increase in NF-kappaB activation at 100 ug/ml by SEAP assay; assay type: cell-based
T1 sequence (whole entry): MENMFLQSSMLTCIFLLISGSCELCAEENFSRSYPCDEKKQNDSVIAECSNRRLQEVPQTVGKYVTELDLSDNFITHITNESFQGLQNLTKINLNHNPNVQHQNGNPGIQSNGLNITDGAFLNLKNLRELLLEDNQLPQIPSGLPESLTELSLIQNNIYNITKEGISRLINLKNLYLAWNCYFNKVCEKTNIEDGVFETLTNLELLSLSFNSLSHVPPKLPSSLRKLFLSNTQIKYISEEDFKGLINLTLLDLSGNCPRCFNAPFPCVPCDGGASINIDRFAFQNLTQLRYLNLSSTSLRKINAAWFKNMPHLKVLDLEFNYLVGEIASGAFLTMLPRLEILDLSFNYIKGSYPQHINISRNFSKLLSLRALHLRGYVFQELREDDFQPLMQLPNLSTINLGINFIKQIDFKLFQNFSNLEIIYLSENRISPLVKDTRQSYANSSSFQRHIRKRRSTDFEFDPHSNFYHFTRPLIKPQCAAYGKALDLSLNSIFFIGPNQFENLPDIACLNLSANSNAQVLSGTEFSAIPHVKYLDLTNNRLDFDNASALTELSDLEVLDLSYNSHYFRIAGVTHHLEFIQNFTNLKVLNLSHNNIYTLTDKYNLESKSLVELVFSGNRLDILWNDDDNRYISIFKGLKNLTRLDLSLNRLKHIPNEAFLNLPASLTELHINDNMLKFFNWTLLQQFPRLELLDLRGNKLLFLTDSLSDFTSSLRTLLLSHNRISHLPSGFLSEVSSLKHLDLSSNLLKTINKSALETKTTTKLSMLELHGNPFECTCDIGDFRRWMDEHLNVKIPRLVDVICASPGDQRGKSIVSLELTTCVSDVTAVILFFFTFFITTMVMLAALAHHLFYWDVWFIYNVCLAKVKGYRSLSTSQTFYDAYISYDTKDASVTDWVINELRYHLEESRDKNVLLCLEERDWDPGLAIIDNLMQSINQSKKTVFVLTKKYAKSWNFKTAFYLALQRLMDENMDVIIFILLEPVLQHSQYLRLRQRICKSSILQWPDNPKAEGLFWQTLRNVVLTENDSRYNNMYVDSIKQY

[9] = test system: Cynomolgus monkey; experiment: Increase in CD69 expression on CD16+ NK cells in cynomolgus monkey at 5 mg/kg, sc after 24 hrs by flow cytometry relative to control; assay type: functional, organism-based; set-up: dose 5 mg/kg; conditions: Macaca fascicularis
[10] = test system: Cynomolgus monkey; experiment: Increase in CD69 expression on CD3+ lymphocytes in cynomolgus monkey at 5 mg/kg, sc after 24 hrs by flow cytometry relative to control; assay type: functional, organism-based; set-up: dose 5 mg/kg; conditions: Macaca fascicularis
[11] = test system: Cynomolgus monkey; experiment: Elevation of IP10 in cynomolgus monkey plasma at 5 mg/kg, sc after 24 hrs; assay type: functional, organism-based; set-up: dose 5 mg/kg; conditions: Macaca fascicularis
[12] = test system: Cynomolgus monkey; experiment: Induction of immune response in cynomolgus monkey assessed as increase in number of peripheral blood monocytes at 5 mg/kg, sc within 24 hrs; assay type: functional, organism-based; set-up: dose 5 mg/kg; conditions: Macaca fascicularis
[13] = test system: Cynomolgus monkey; experiment: Elevation of IFNalpha in cynomolgus monkey plasma at 5 mg/kg, sc after 24 hrs; assay type: functional, organism-based; set-up: dose 5 mg/kg; conditions: Macaca fascicularis
[14] = test system: Mus musculus; experiment: Induction of IL12 secretion in sc dosed C57BL/6 mouse serum after 2 hrs by ELISA; assay type: functional, organism-based
[15] = test system: Mus musculus; experiment: Induction of IP10 secretion in C57BL/6 mouse plasma at 100 mg/kg, sc by Luminex Multiplex assay; assay type: functional, organism-based; set-up: dose 100 mg/kg
[16] = test system: Mus musculus; experiment: Induction of IL12 secretion in C57BL/6 mouse plasma at 100 mg/kg, sc by Luminex Multiplex assay; assay type: functional, organism-based; set-up: dose 100 mg/kg
[17] = test system: Cynomolgus monkey; experiment: Increase in CD69 expression on CD14+ monocytes in cynomolgus monkey at 5 mg/kg, sc after 24 hrs by flow cytometry relative to control; assay type: functional, organism-based; set-up: dose 5 mg/kg; conditions: Macaca fascicularis
[18] = test system: Mus musculus; experiment: Induction of MCP1 secretion in C57BL/6 mouse plasma at 100 mg/kg, sc by Luminex Multiplex assay; assay type: functional, organism-based; set-up: dose 100 mg/kg
[19] = biological target: T2, Toll-like receptor 7 (Homo sapiens) (UniProt Q9NYK1); experiment: Activation of human TLR7 expressed in HEK293 cells assessed as increase in NF-kappaB activation at 100 ug/ml by SEAP assay; assay type: cell-based
T2 sequence (whole entry): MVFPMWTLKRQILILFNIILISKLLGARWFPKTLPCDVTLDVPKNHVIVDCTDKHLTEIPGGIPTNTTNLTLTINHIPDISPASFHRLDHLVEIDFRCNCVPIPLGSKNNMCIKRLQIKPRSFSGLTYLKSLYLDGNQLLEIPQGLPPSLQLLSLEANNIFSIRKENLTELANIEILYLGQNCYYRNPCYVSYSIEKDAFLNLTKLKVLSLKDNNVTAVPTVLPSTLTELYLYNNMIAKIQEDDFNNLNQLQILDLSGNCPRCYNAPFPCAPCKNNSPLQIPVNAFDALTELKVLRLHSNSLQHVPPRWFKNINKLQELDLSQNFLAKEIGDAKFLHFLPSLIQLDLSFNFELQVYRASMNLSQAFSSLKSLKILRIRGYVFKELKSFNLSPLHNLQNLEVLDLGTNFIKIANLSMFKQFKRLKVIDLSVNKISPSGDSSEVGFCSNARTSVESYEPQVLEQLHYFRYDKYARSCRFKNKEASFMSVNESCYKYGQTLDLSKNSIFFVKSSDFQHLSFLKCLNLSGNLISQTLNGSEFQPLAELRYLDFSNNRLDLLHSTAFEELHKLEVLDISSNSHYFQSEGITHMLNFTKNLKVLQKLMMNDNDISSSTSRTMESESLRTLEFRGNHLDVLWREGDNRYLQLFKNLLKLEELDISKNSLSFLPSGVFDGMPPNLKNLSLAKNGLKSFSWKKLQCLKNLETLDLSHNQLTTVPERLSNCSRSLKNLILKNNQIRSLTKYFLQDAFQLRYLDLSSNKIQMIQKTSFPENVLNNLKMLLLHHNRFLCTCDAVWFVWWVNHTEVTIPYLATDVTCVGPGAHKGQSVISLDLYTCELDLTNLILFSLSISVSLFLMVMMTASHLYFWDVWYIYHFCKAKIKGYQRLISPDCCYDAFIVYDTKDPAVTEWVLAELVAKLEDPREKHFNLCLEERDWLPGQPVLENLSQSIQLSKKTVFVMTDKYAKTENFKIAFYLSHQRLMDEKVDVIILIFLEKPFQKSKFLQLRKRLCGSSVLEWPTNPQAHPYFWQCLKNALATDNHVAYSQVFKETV

[20] = test system: Mus musculus; experiment: Induction of cytokine secretion in C57BL/6 mouse plasma at 100 mg/kg, sc by Luminex Multiplex assay; assay type: functional, organism-based; set-up: dose 100 mg/kg
[21] = test system: Mus musculus; experiment: Induction of IL10 secretion in C57BL/6 mouse plasma at 100 mg/kg, sc by Luminex Multiplex assay; assay type: functional, organism-based; set-up: dose 100 mg/kg

## Nc1ccn([C@@H]2O[C@H](COP(O)(=S)O[C@H]3[C@@H](O)[C@H](n4ccc(=O)[nH]c4=O)O[C@@H]3COP(O)(=S)O[C@H]3[C@@H](O)[C@H](n4ccc(=O)[nH]c4=O)O[C@@H]3COP(O)(=S)O[C@H]3[C@@H](O)[C@H](n4ccc(N)nc4=O)O[C@@H]3COP(O)(=S)O[C@H]3[C@@H](O)[C@H](n4ccc5c(=O)[nH]c(N)nc54)O[C@@H]3COP(O)(=S)O[C@H]3[C@@H](O)[C@H](n4ccc(=O)[nH]c4=O)O[C@@H]3COP(O)(=S)O[C@H]3[C@@H](O)[C@H](n4ccc(N)nc4=O)O[C@@H]3COP(O)(=S)O[C@H]3[C@@H](O)[C@H](n4ccc5c(=O)[nH]c(N)nc54)O[C@@H]3COP(O)(=S)O[C@H]3[C@@H](O)[C@H](n4ccc(=O)[nH]c4=O)O[C@@H]3CO)[C@@H](OP(O)(=S)OC[C@H]3O[C@@H](n4ccc(=O)[nH]c4=O)[C@H](O)[C@@H]3OP(O)(=S)OC[C@H]3O[C@@H](n4ccc5c(=O)[nH]c(N)nc54)[C@H](O)[C@@H]3OP(O)(=S)OCC(O)COP(O)(=S)O[C@H]3[C@@H](O)[C@H](n4ccc5c(=O)[nH]c(N)nc54)O[C@@H]3COP(O)(=S)O[C@H]3[C@@H](O)[C@H](n4ccc(=O)[nH]c4=O)O[C@@H]3COP(O)(=S)O[C@H]3[C@@H](O)[C@H](n4ccc(N)nc4=O)O[C@@H]3COP(O)(=S)O[C@H]3[C@@H](O)[C@H](n4ccc(=O)[nH]c4=O)O[C@@H]3COP(O)(=S)O[C@H]3[C@@H](O)[C@H](n4ccc(=O)[nH]c4=O)O[C@@H]3COP(O)(=S)O[C@H]3[C@@H](O)[C@H](n4ccc(N)nc4=O)O[C@@H]3COP(O)(=S)O[C@H]3[C@@H](O)[C@H](n4ccc5c(=O)[nH]c(N)nc54)O[C@@H]3COP(O)(=S)O[C@H]3[C@@H](O)[C@H](n4ccc(=O)[nH]c4=O)O[C@@H]3COP(O)(=S)O[C@H]3[C@@H](O)[C@H](n4ccc(N)nc4=O)O[C@@H]3COP(O)(=S)O[C@H]3[C@@H](O)[C@H](n4ccc5c(=O)[nH]c(N)nc54)O[C@@H]3COP(O)(=S)O[C@H]3[C@@H](O)[C@H](n4ccc(=O)[nH]c4=O)O[C@@H]3CO)[C@H]2O)c(=O)n1 (stereo partly specified)
[1]
  Activity: Dose-dependent effect
[2]
  Activity: inactive
[3]
  Activity: Active
[4]
  Activity: Active
[5]
  Activity: Active
[6]
  Activity: Dose-dependent effect
[7]
  remaining at 10 min: 57%
[8]
  Activity: Active
[9]
  Activity: Active
[10]
  Activity: Active
[11]
  Activity: Active
[12]
  Activity: Active
[13]
  Activity: Active
[14]
  Activity: Dose-dependent effect
[15]
  Activity: Active
[16]
  Activity: Active
[17]
  Activity: Active
[18]
  Activity: Active
[19]
  Activity: Active
[20]
  Activity: inactive
[21]
  Activity: Active
